Results as given in ChEMBL document CHEMBL1201862, “PubChem BioAssay data set” (2004).
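Grown in 96-well plates, cells were treated for 48 hours with each compound at five concentrations. Insufficient inhibition: endpoint recorded as highest concentration tested. GI50 = concentration required for 50% inhibition of growth.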 Active and inactive are the calls of the source. Cut-off read from the data, not from the text of the source: active = GI50 up to about 1.1 µM and inactive = higher.

Experiments:
Experiment in all cases: NCI-60 cell line screen, 48 h
EKVX = test system: EKVX
NCI-H23 = test system: NCI-H23
HOP-62 = test system: HOP-62
KM12 = test system: KM12
MDA-MB-435 = test system: MDA-MB-435
RXF 393 = test system: RXF 393
SR = test system: SR
UACC-62 = test system: UACC-62
NCI-H522 = test system: NCI-H522
HOP-92 = test system: HOP-92
CAKI-1 = test system: CAKI-1
MDA-MB-231 = test system: MDA-MB-231
MCF7 = test system: MCF7
OVCAR-4 = test system: OVCAR-4
MOLT-4 = test system: MOLT-4
Hs-578T = test system: Hs-578T
OVCAR-5 = test system: OVCAR-5
SF-539 = test system: SF-539
NCI/ADR-RES = test system: NCI/ADR-RES
SK-OV-3 = test system: SK-OV-3
HCC 2998 = test system: HCC 2998
HCT-15 = test system: HCT-15
DU-145 = test system: DU-145
LOX IMVI = test system: LOX IMVI
K562 = test system: K562
Malme-3M = test system: Malme-3M
IGROV-1 = test system: IGROV-1
CCRF-CEM = test system: CCRF-CEM
HT-29 = test system: HT-29
786-0 = test system: 786-0
SN12C = test system: SN12C
PC-3 = test system: PC-3
HCT-116 = test system: HCT-116
SNB-75 = test system: SNB-75
NCI-H226 = test system: NCI-H226
ACHN = test system: ACHN
BT-549 = test system: BT-549
MDA-N = test system: MDA-N
SK-MEL-2 = test system: SK-MEL-2
T47D = test system: T47D
SNB-19 = test system: SNB-19
UO-31 = test system: UO-31
M14 = test system: M14
A498 = test system: A498
SF-295 = test system: SF-295
NCI-H460 = test system: NCI-H460
SW-620 = test system: SW-620
SK-MEL-5 = test system: SK-MEL-5
RPMI-8226 = test system: RPMI-8226
A549 = test system: A549
U-251 = test system: U-251
HL-60 = test system: HL-60
OVCAR-3 = test system: OVCAR-3
OVCAR-8 = test system: OVCAR-8
SK-MEL-28 = test system: SK-MEL-28
TK-10 = test system: TK-10
SF-268 = test system: SF-268
COLO 205 = test system: COLO 205
UACC-257 = test system: UACC-257

`CC(C)C[C@H](NC(=O)[C@H](Cc1ccc(F)cc1)NC(=O)c1ccccn1)B(O)O` was tested, and the GI50 (EKVX) was < 0.01 µM (active), the GI50 (NCI-H23) was < 0.01 µM (active) and the GI50 (HOP-62) was < 0.01 µM (active). For the same molecule, the GI50 (KM12) was < 0.01 µM (active), the GI50 (MDA-MB-435) was < 0.01 µM (active) and the GI50 (RXF 393) was < 0.01 µM (active). The GI50 (SR) was < 0.01 µM (active), the GI50 (UACC-62) was < 0.01 µM (active) and the GI50 (NCI-H522) was < 0.01 µM (active). For the same molecule, the GI50 (HOP-92) was < 0.01 µM (active), the GI50 (CAKI-1) was < 0.01 µM (active) and the GI50 (MDA-MB-231) was < 0.01 µM (active). The GI50 (MCF7) was < 0.01 µM (active), the GI50 (OVCAR-4) was < 0.01 µM (active) and the GI50 (MOLT-4) was < 0.01 µM (active). For the same molecule, the GI50 (Hs-578T) was < 0.01 µM (active), the GI50 (OVCAR-5) was < 0.01 µM (active) and the GI50 (SF-539) was < 0.01 µM (active). The GI50 (NCI/ADR-RES) was < 0.01 µM (active), the GI50 (SK-OV-3) was < 0.0148 µM (active) and the GI50 (HCC 2998) was < 0.01 µM (active). The GI50 (HCT-15) was less than 0.01 µM, the GI50 (DU-145) was < 0.01 µM (active) and the GI50 (LOX IMVI) was < 0.01 µM (active). For the same molecule, the GI50 (K562) was < 0.01 µM (active), the GI50 (Malme-3M) was < 0.01 µM (active) and the GI50 (IGROV-1) was < 0.01 µM (active). The GI50 (CCRF-CEM) was < 0.01 µM (active), the GI50 (HT-29) was < 0.01 µM (active) and the GI50 (786-0) was < 0.01 µM (active). The GI50 (SN12C) was < 0.01 µM (active), the GI50 (PC-3) was < 0.01 µM (active) and the GI50 (HCT-116) was < 0.01 µM (active). The GI50 (SNB-75) was < 0.01 µM (active), the GI50 (NCI-H226) was < 0.01 µM (active) and the GI50 (ACHN) was < 0.01 µM (active). The GI50 (BT-549) was < 0.01 µM (active), the GI50 (MDA-N) was < 0.01 µM (active) and the GI50 (SK-MEL-2) was < 0.01 µM (active). The GI50 (T47D) was < 0.01 µM (active), the GI50 (SNB-19) was < 0.01 µM (active) and the GI50 (UO-31) was < 0.01 µM (active). The GI50 (M14) was < 0.01 µM (active), the GI50 (A498) was < 0.01 µM (active) and the GI50 (SF-295) was < 0.01 µM (active). The GI50 (NCI-H460) was < 0.01 µM (active), the GI50 (SW-620) was < 0.01 µM (active) and the GI50 (SK-MEL-5) was < 0.01 µM (active). For the same molecule, the GI50 (RPMI-8226) was < 0.01 µM (active), the GI50 (A549) was < 0.01 µM (active) and the GI50 (U-251) was < 0.01 µM (active). The GI50 (HL-60) was < 0.01 µM (active), the GI50 (OVCAR-3) was < 0.01 µM (active) and the GI50 (OVCAR-8) was < 0.01 µM (active). The GI50 (SK-MEL-28) was < 0.01 µM (active), the GI50 (TK-10) was < 0.01 µM (active) and the GI50 (SF-268) was < 0.01 µM (active). For the same molecule, the GI50 (COLO 205) was < 0.01 µM (active) and the GI50 (UACC-257) was < 0.01 µM (active).
